Consider 21 compounds from patent publication US20170066717A1, “NEW PHENYLAZETIDINECARBOXYLATE OR -CARBOXAMIDE COMPOUNDS” (INVENTIVA, priority 2014, published 2017).

One may read the Emax as the greatest response seen or fitted, relative to the assay's reference. The term EC50 denotes the concentration at which the effect is half-maximal. A word on the melting point: it is the temperature of the solid-liquid transition.

The target in one data set is T1, NURR-1/RXRα (Homo sapiens, UniProt P19793).
T1 construct: expressed in transfected cells; host or cells: Cos-7 cells
Kind of data set: Transactivation test, NURR-1-Gal4/RXRα, luciferase reporter in Cos-7 cells. The data set is classed as cell-based. The note with it: for Emax: COS-7, induction level relative to reference XCT0135908 at 2×10^−5 M (=100%), read-out: hNurr1_RXRaFL Emax (%); for EC50: Cos-7 cells, NURR-1-Gal4/RXRα, luciferase reporter, read-out: hNurr1_RXRaFL EC50. A general note: Reporter assays use an easily measured gene product as a stand-in for the process of interest.

A further data set concerns the target T2, NURR-1/RXRγ (Homo sapiens, UniProt P48443).
T2 construct: expressed in transfected cells; host or cells: Cos-7 cells
Kind of data set: Transactivation test, NURR-1-Gal4/RXRγ, luciferase reporter in Cos-7 cells. The data set is classed as cell-based. The note with it: for Emax: COS-7, induction level relative to reference XCT0135908 at 2×10^−5 M (=100%), read-out: hNurr1_RXRgFL Emax (%); for EC50: Cos-7 cells, NURR-1-Gal4/RXRγ, luciferase reporter, read-out: hNurr1_RXRgFL EC50.

T1 sequence (P19793 whole entry): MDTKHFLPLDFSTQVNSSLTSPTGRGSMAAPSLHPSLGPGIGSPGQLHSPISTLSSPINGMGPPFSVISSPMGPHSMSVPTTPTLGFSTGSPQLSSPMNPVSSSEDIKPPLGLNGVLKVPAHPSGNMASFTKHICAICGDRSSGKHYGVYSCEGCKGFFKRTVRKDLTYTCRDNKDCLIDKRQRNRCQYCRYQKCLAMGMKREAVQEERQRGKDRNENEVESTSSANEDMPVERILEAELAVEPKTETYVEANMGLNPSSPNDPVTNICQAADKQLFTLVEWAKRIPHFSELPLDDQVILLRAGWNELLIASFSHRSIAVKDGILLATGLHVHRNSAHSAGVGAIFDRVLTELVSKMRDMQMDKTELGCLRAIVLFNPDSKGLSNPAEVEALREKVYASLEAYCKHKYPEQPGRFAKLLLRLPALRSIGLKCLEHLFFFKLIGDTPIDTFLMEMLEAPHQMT
T1 sequence (P43354 whole entry partner): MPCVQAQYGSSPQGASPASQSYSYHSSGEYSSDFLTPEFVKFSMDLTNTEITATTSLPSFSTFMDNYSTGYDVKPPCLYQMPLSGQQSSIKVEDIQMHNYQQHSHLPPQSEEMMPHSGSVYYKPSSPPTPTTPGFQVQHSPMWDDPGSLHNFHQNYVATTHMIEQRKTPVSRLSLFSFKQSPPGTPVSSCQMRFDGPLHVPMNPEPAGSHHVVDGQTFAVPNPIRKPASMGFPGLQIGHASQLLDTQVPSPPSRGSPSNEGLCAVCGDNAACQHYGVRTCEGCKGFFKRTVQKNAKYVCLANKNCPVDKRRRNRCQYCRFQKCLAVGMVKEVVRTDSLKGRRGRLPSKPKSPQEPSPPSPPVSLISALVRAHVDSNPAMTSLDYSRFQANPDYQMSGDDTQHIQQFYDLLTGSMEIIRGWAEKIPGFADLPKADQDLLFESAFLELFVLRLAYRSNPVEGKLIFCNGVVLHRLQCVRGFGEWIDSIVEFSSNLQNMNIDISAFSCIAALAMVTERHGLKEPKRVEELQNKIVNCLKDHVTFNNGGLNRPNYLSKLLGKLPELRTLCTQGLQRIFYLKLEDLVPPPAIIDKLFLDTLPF
T1 sequence (P04386 1-147 partner limits assumed): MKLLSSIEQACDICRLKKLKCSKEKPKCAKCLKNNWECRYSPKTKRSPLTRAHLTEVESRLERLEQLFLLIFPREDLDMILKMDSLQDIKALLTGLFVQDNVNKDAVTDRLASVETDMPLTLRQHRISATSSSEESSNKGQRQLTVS
T2 sequence (P48443 whole entry): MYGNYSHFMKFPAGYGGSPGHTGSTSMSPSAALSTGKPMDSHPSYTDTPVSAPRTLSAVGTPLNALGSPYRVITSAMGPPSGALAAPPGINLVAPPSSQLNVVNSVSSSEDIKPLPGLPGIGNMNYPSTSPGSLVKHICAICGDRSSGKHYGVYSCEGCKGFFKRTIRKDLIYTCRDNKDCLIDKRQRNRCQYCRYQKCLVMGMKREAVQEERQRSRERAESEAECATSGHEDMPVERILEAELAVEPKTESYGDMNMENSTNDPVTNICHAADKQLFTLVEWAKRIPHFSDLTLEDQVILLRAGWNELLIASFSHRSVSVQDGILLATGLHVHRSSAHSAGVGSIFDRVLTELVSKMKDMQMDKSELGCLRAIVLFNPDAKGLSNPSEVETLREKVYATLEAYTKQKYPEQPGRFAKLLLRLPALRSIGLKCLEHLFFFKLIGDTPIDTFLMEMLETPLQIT
T2 sequence (P43354 whole entry partner): as the sequence (P43354 whole entry partner) above
T2 sequence (P04386 1-147 partner limits assumed): as the sequence (P04386 1-147 partner limits assumed) above

Compound `CCc1ccc2c(c1)OC(C)(C)CN2c1cccc(N2CC(C(=O)[O-])C2)c1.[Na+]` [Example 235, sodium 1-[3-(7-ethyl-2,2-dimethyl-3H-1,4-benzoxazin-4-yl)phenyl]azetidine-3-carboxylate] gave a melting point of 160 to 188 °C. On NURR-1/RXRα, the Emax was 102% and the EC50 came out at 0.092 µM. Moreover, on NURR-1/RXRγ, the Emax is 107% and the EC50 came out at 0.174 µM.

`COc1cc(N2CC(C(=O)O)C2)cc(N2CC(C)(C)Oc3cc(C(F)(F)F)ccc32)c1` [Example 236, 1-[3-[2,2-dimethyl-7-(trifluoromethyl)-3H-1,4-benzoxazin-4-yl]-5-methoxyphenyl]azetidine-3-carboxylic acid] registered a melting point of 70 to 75 °C. Further, on NURR-1/RXRα, the Emax amounted to 93% and the EC50 was found to be 0.021 µM. Further, on NURR-1/RXRγ, the Emax came to 98% and the EC50 turned out to be 0.063 µM.

For `Cc1ccc(N2CC(C(=O)O)C2)cc1N1CC(C)(C)Oc2cc(C(F)(F)F)ccc21` [Example 237, 1-[3-[2,2-dimethyl-7-(trifluoromethyl)-3H-1,4-benzoxazin-4-yl]-4-methylphenyl]azetidine-3-carboxylic acid], the melting point fell in the range of 74 to 83 °C. Moreover, at NURR-1/RXRα, the Emax came out at 82% and the EC50 came to 0.057 µM. Further, on NURR-1/RXRγ, the Emax amounted to 77% and the EC50 was determined as 0.257 µM.

Compound `Cc1c(N2CC(C(=O)O)C2)cccc1N1CC(C)(C)Oc2cc(C(F)(F)F)ccc21` [Example 238] displayed a melting point of 168 to 171 °C. Moreover, on NURR-1/RXRα, the Emax is 86% and the EC50 was determined as 0.103 µM. In addition, on NURR-1/RXRγ, the Emax was found to be 82% and the EC50 was determined as 0.154 µM.

As to `Cc1ccc(N2CC(C)(C)Oc3cc(C(F)(F)F)ccc32)cc1N1CC(C(=O)O)C1` [Example 239, 1-[5-[2,2-dimethyl-7-(trifluoromethyl)-3H-1,4-benzoxazin-4-yl]2-methylphenyl]azetidine-3-carboxylic acid], the melting point is 96 to 99 °C. At NURR-1/RXRα, the Emax turned out to be 118% and the EC50 was 0.234 µM. In addition, at NURR-1/RXRγ, the Emax is 102% and the EC50 was 6.11 µM.

On to `CC1(C)CN(c2cccc(N3CC(C(=O)[O-])C3)c2)c2ncc(C(F)(F)F)cc2O1.[Na+]` [Example 241, sodium 1-[3-[2,2-dimethyl-7-(trifluoromethyl)-3H-pyrido[3,2-b][1,4]oxazin-4-yl]phenyl]-azetidine-3-carboxylate], for which the melting point was 123 to 139 °C. For the same compound, on NURR-1/RXRα, the Emax came to 100% and the EC50 stood at 0.11 µM. Moreover, at NURR-1/RXRγ, the Emax turned out to be 107% and the EC50 is 0.194 µM.

Regarding `CC1(C)CN(c2cccc(N3CC(C(=O)[O-])C3)c2)c2cnc(C(F)(F)F)cc2O1.[Na+]` [Example 242, sodium 1-[3-[2,2-dimethyl-7-(trofluoromethyl)-3H-pyrido[4,3-b][1,4]ozaxin-4-yl]phenyl]azetidine-3-carboxylate], the melting point fell in the range of 149 to 155 °C. At NURR-1/RXRα, the Emax worked out at 84% and the EC50 worked out at 0.227 µM. Further, at NURR-1/RXRγ, the Emax worked out at 76% and the EC50 is 0.299 µM.

As to `CC1(C)Cc2cc(Cl)ccc2N(c2cccc(N3CC(C(=O)[O-])C3)c2)C1.[Na+]` [Example 243, sodium 1-[3-(6-chloro-3,3-dimethyl-2,4-dihydroquinolin-1-yl)phenyl]azetidine-3-carboxylate], the melting point was 70 to 80 °C. In addition, on NURR-1/RXRα, the Emax amounted to 83% and the EC50 turned out to be 0.058 µM. Also, on NURR-1/RXRγ, the Emax was determined as 89% and the EC50 turned out to be 0.034 µM.

With `CC(C)CC1Oc2cc(C(F)(F)F)ccc2N(c2cccc(N3CC(C(=O)O)C3)c2)C1=O` (stereo not drawn) [Example 246, 1-[3-[2-isobutyl-3-oxo-7-(trifluoromethyl)-1,4-benzoxazin-4-yl]phenyl]azetidine-3-carboxylic acid], the melting point was in the range of 86 to 96 °C. For the same compound, at NURR-1/RXRα, the Emax came out at 96% and the EC50 was 0.013 µM. For the same compound, at NURR-1/RXRγ, the Emax is 94% and the EC50 is 0.053 µM.

In the case of `CCC1(CC)Oc2cc(C(F)(F)F)ccc2N(c2cccc(N3CC(C(=O)O)C3)c2)C1=O` [Example 247, 1-[3-[2,2-diethyl-3-oxo-7-(trifluoromethyl)-1,4-benzoxazin-4-yl]phenyl]azetidine-3-carboxylic acid], the melting point was 73 to 85 °C. Also, on NURR-1/RXRα, the Emax was 100% and the EC50 was 0.019 µM. In addition, at NURR-1/RXRγ, the Emax was found to be 92% and the EC50 came to 0.043 µM.

Compound `CC(C)C1Oc2cc(C(F)(F)F)ccc2N(c2cccc(N3CC(C(=O)O)C3)c2)C1=O` (stereo not drawn) [Example 248, 1-[3-[2-isopropyl-3-oxo-7-(trifluoromethyl)-1,4-benzoxazin-4-yl]phenyl]azetidine-3-carboxylic acid] gave a melting point of 78 to 87 °C. For the same compound, at NURR-1/RXRα, the Emax came out at 105% and the EC50 stood at 0.022 µM. Moreover, at NURR-1/RXRγ, the Emax was determined as 92% and the EC50 was determined as 0.313 µM.

As for `Cc1ccc2c(c1)OC(C)(C)C(=O)N2c1cccc(N2CC(C(=O)O)C2)c1` [Example 249, 1-[3-(2,2,7-trimethyl-3-oxo-1,4-benzoxazin-4-yl)phenyl]azetidine-3-carboxylic acid], the melting point lay within 78 to 91 °C. On NURR-1/RXRα, the Emax was determined as 95% and the EC50 is 0.245 µM. At NURR-1/RXRγ, the Emax came to 83% and the EC50 amounted to 0.548 µM.

`CC1(C)Oc2cc(C(C)(C)C)ccc2N(c2cccc(N3CC(C(=O)[O-])C3)c2)C1=O.[Na+]` [Example 250, sodium 1-[3-(7-tert-butyl-2,2-dimethyl-3-oxo-1,4-benzoxazin-4-yl)phenyl]azetidine-3-carboxylate] returned a melting point of 178 to 198 °C. For the same compound, on NURR-1/RXRα, the Emax was found to be 98% and the EC50 was 0.289 µM. Moreover, on NURR-1/RXRγ, the Emax worked out at 83% and the EC50 was 0.288 µM.

Compound `CC(C)c1ccc2c(c1)OC(C)(C)C(=O)N2c1cccc(N2CC(C(=O)O)C2)c1` [Example 251, 1-[3-(7-isopropyl-2,2-dimethyl-3-oxo-1,4-benzoxazin-4-yl)phenyl]azetidine-3-carboxylic acid] showed a melting point of 104 to 108 °C. Moreover, at NURR-1/RXRα, the Emax worked out at 93% and the EC50 worked out at 0.514 µM. Also, at NURR-1/RXRγ, the Emax amounted to 88% and the EC50 is 0.766 µM.

On to `O=C(O)C1CN(c2cccc(N3C(=O)COc4cc(C(F)(F)F)ccc43)c2)C1` [Example 252, 1-[3-[3-oxo-7-(trifluoromethyl)-1,4-benzoxazin-4-yl]phenyl]azetidine-3-carboxylic acid], for which the melting point lay within 195 to 199 °C. Besides, at NURR-1/RXRα, the Emax came to 105% and the EC50 stood at 0.719 µM. Besides, at NURR-1/RXRγ, the Emax was found to be 96% and the EC50 amounted to 2.09 µM.

Turning to `CCC1(CC)CN(c2cccc(N3CC(C(=O)O)C3)c2)c2ccc(C(F)(F)F)cc21` [Example 255, 1-[3-[3,3-diethyl-5-(trifluoromethyl)indolin-1-yl]phenyl]azetidine-3-carboxylic acid], the melting point came to 83 °C. Moreover, at NURR-1/RXRα, the maximal effect (Emax) was 104% and the EC50 was 0.018 µM. On NURR-1/RXRγ, the Emax stood at 103% and the EC50 is 0.044 µM.

In turn, `CCC1(CC)C(=O)N(c2cccc(N3CC(C(=O)O)C3)c2)c2ccc(C(F)(F)F)cc21` [Example 258, 1-[3-[3,3-diethyl-2-oxo-5-(trifluoromethyl)indolin-1-yl]phenyl]azetidine-carboxylic acid] showed a melting point of 159 to 161 °C. For the same compound, on NURR-1/RXRα, the Emax is 102% and the EC50 was determined as 0.236 µM. In addition, on NURR-1/RXRγ, the Emax worked out at 107% and the EC50 was 0.755 µM.

As for `CC1(C)Cc2cc(C(F)(F)F)ccc2N(c2cccc(N3CC(C(=O)O)C3)c2)C1=O` [Example 259, 1-[3-[3,3-dimethyl-2-oxo-6-(trifluoromethyl)-4H-quinolin-1-yl]phenyl]azetidine-3-carboxylic acid], the melting point is 96 to 100 °C. On NURR-1/RXRα, the Emax amounted to 95% and the EC50 was 0.101 µM. For the same compound, on NURR-1/RXRγ, the Emax was 98% and the EC50 worked out at 0.349 µM.

Compound `CC(C)c1ccc2c(c1)c1c(n2-c2cccc(N3CC(C(=O)O)C3)c2)CCC(C)(C)C1` [Example 260, 1-[3-(6-isopropyl-3,3-dimethyl-2,4-1H-carbzaol-9-yl)phenyl]azetidine-3-carboxylic acid] gave a melting point of 55 to 82 °C. Moreover, at NURR-1/RXRα, the maximal effect (Emax) stood at 56% and the EC50 was determined as 0.255 µM. At NURR-1/RXRγ, the Emax was determined as 56% and the EC50 was found to be 0.551 µM.

With `O=C([O-])C1CN(c2cccc(N3c4ccc(Cl)cc4C4CCCC43)c2)C1.[Na+]` (stereo not drawn) [Example 261, sodium 1-[3-(7-chloro-2,3,3a,8b-tetrahydro-1H-cyclopenta[b]indol-4-yl)phenyl]azetidine-3-carboxylate], the melting point was in the range of 141 to 170 °C. Also, on NURR-1/RXRα, the Emax was 78% and the EC50 worked out at 0.031 µM. Further, at NURR-1/RXRγ, the Emax stood at 95% and the EC50 came to 0.304 µM.

Take `Cc1nc2cc(C(F)(F)F)ccc2n1-c1cccc(N2CC(C(=O)O)C2)c1` [Example 262, 1-[3-[2-methyl-5-(trifluoromethyl)benzimidazol-1-yl]phenyl]azetidine-3carboxylic acid]: the melting point was 94 to 96 °C. Also, on NURR-1/RXRα, the Emax was 81% and the EC50 came out at 1.7 µM. Moreover, on NURR-1/RXRγ, the Emax was found to be 98% and the EC50 was 2.83 µM.
